Data reported in US20250354998A1, “METHODS OF DIAGNOSING AND TREATING MULTIPLE SCLEROSIS BY DETECTING A BIOMARKER IN THE CEREBROSPINAL FLUID” (Principia Biopharma Inc., priority 2023, published 2025).

Key:
[1] = tested on: CSF proteome (Olink Explore 384 panels, 1463 analytes); assay: Olink proteomics of cerebrospinal fluid of MS patients under therapy; assay type: in vivo, human
Protocol: In the present study, a platform technology (Olink® Proteomics) was used. This test utilizes a high throughput, multiplex immunoassay technology that enables the measurement of over 1000 proteins from small sample volumes. See e.g., Assarsson E, et al. PLoS One 2014; 9(4): e95192; and Cui M, et al. Lab Invest 2022, each of which is incorporated by reference in its entirety. Two sets of subjects were analyzed. First, Olink proteomics technology was used to profile the baseline CSF proteome of untreated MS patients. Second, alterations to the MS CSF proteome upon therapeutic intervention with either a B cell depleting agent alone or after transitioning to tolebrutinib, a brain penetrant Bruton's tyrosine kinase (BTK) inhibitor, was evaluated.
To establish a baseline of proteomic expression, an Olink proteomics assay was performed on the CSF of multiple groups of subjects, including healthy volunteers (HV), HTLV 1 associated myelopathy/tropical spastic paraparesis (HAM/TSP) patients, radiologically isolated syndrome (RIS) patients, clinically isolated syndrome (CIS) patients, and multiple sclerosis (MS) patients, including patients with relapsing remitting MS (RRMS), secondary progressive MS (SPMS), and primary progressive MS (PPMS). CSF samples were collected from 31 healthy volunteers and 71 treatment-naïve subjects with MS. The CSF proteome was examined using the Cardiometabolic, Inflammation, Neurology, and Oncology Olink Explore 384 panels (1463 analytes total).
Next, it was examined whether treatment with different therapies for patients having MS would result in differential proteome expression. A group of subjects with MS were treated either with an anti-CD20 antibody alone or with an anti-CD20 antibody and then transitioning to tolebrutinib, and their proteome was examined using similar techniques described in Example 1B. More specifically, the cohort of MS patients in this example included untreated patients, patients treated with a B cell depleting agent for at least six months, and patients 12 weeks and 48 weeks after transitioning from a B cell depletion therapy to tolebrutinib in a clinical trial (NCT04742400).
Several participants (age [mean±standard deviation]: 48.2±7.9 years; sex: 2 female) who had been treated with ocrelizumab for >6 months (median: 3.2 years; range: 1.8-4.0 years) were included. Participants had no signs of acute focal inflammation based on magnetic resonance imaging. CSF was collected before baseline (within 6 months since last ocrelizumab infusion), and at 12 and 48 weeks after transitioning to tolebrutinib 60 mg.
The data were sorted into two sets of comparisons. The comparisons include (1) subjects treated with an anti-CD20 antibody compared to untreated MS subjects (FIG. 3) and (2) subjects treated with tolebrutinib after transitioning from an anti-CD20 antibody compared to subjects treated with an anti-CD20 antibody (FIG. 4A).

CXCL13 = CXCL13 protein level in CSF by MSD (meso scale discovery); assay type: in vivo, human; conditions: MSD (FIG. 6); twelve week and forty-eight week course of tolebrutinib vs untreated, HAM/TSP or continued ocrelizumab
Text: HV: health volunteer; HAM/TSP: HTLV-1 associated myelopathy/tropical spastic paraparesis without treatment; MS_untreated: subjects with MS but have not been treated; MS_ocrelizumab: subjects treated only with an anti-CD20 antibody; MS_tolebrutinib: subjects treated with daily doses of tolebrutinib.
Similarly, this decrease was seen when comparing subjects who continued treatment with the anti-CD20 antibody (ocrelizumab) with subjects treated with a twelve week and forty-eight week course of tolebrutinib. FIGS. 4D, 5, and 6.

[2] = CSF, 48 weeks after transitioning from anti-CD20 antibody to tolebrutinib 60 mg vs anti-CD20 antibody
[3] = CSF, 48 weeks post-transition to tolebrutinib vs anti-CD20
[4] = CSF, subjects treated with anti-CD20 antibody for at least six months vs untreated MS subjects

With `C=CC(=O)N1CCC[C@@H](n2c(=O)n(-c3ccc(Oc4ccccc4)cc3)c3c(N)nccc32)C1` [tolebrutinib, (R)-1-(1-acryloylpiperidin-3-yl)-4-amino-3-(4-phenoxyphenyl)-1H-imidazo[4,5-c]pyridin-2(3H)-one] the “example biomarkers NEFL, CXCL13, CXCL10, CD27, CCL4 and CCL3 in CSF” value ([1]; 48 weeks after transitioning from anti-CD20 therapy to tolebrutinib) was “disease-reversed proteins”, the “ANGPT1 Fold-Change (48wkBTKi. vs. antiCD20)” value [1, 2] was −1.658 and the “ANGPTL2 Fold-Change (48wkBTKi. vs. antiCD20)” value [1, 2] was −3.266. For the same molecule, the “ATXN10 Fold-Change (48wkBTKi. vs. antiCD20)” value [1, 2] was −6.437, the “CCL3 Fold-Change (48wkBTKi. vs. antiCD20)” value [1, 2] was −2.142 and the “CCL4 Fold-Change (48wkBTKi. vs. antiCD20)” value [1, 2] was −2.092. For the same molecule, the “CCL8 Fold-Change (48wkBTKi. vs. antiCD20)” value [1, 2] was −2.68, the “CCL11 Fold-Change (48wkBTKi. vs. antiCD20)” value [1, 2] was −1.9597 and the “CCN4 Fold-Change (48wkBTKi. vs. antiCD20)” value [1, 2] was −1.611. For the same molecule, the “CD4 Fold-Change (48wkBTKi. vs. antiCD20)” value [1, 2] was −1.706, the “CD8A Fold-Change (48wkBTKi. vs. antiCD20)” value [1, 2] was −1.75 and the “CD38 Fold-Change (48wkBTKi. vs. antiCD20)” value [1, 2] was −2.035. For the same molecule, the “CD276 Fold-Change (48wkBTKi. vs. antiCD20)” value [1, 2] was −2.173, the “CD302 Fold-Change (48wkBTKi. vs. antiCD20)” value [1, 2] was −1.5791 and the “CDH3 Fold-Change (48wkBTKi. vs. antiCD20)” value [1, 2] was −2.293. The “CDNF Fold-Change (48wkBTKi. vs. antiCD20)” value [1, 2] was −2.1, the “CGREF1 Fold-Change (48wkBTKi. vs. antiCD20)” value [1, 2] was −1.535 and the “CHRDL1 Fold-Change (48wkBTKi. vs. antiCD20)” value [1, 2] was −2.236. For the same molecule, the “CLEC4C Fold-Change (48wkBTKi. vs. antiCD20)” value [1, 2] was −1.714, the “CLUL1 Fold-Change (48wkBTKi. vs. antiCD20)” value [1, 2] was −2.021 and the “CTRC Fold-Change (48wkBTKi. vs. antiCD20)” value [1, 2] was −2.869. For the same molecule, the “CXCL1 Fold-Change (48wkBTKi. vs. antiCD20)” value [1, 2] was −3.054, the “CXCL8 Fold-Change (48wkBTKi. vs. antiCD20)” value [1, 2] was −1.605 and the “CXCL10 Fold-Change (48wkBTKi. vs. antiCD20)” value [1, 2] was −3.598. For the same molecule, the “DRAXIN Fold-Change (48wkBTKi. vs. antiCD20)” value [1, 2] was −2.047, the “HS3ST3B1 Fold-Change (48wkBTKi. vs. antiCD20)” value [1, 2] was −1.708 and the “HYOU1 Fold-Change (48wkBTKi. vs. antiCD20)” value [1, 2] was −1.676. For the same molecule, the “IL5RA Fold-Change (48wkBTKi. vs. antiCD20)” value [1, 2] was −1.716, the “IL11 Fold-Change (48wkBTKi. vs. antiCD20)” value [1, 2] was −6.841 and the “KAZALD1 Fold-Change (48wkBTKi. vs. antiCD20)” value [1, 2] was −1.548. The “KRT18 Fold-Change (48wkBTKi. vs. antiCD20)” value [1, 2] was −1.6528, the “LPL Fold-Change (48wkBTKi. vs. antiCD20)” value [1, 2] was −1.744 and the “LTA Fold-Change (48wkBTKi. vs. antiCD20)” value [1, 2] was −1.552. The “MATN3 Fold-Change (48wkBTKi. vs. antiCD20)” value [1, 2] was −1.889, the “MFAP5 Fold-Change (48wkBTKi. vs. antiCD20)” value [1, 2] was −2.536 and the “MSLN Fold-Change (48wkBTKi. vs. antiCD20)” value [1, 2] was −2.068. The “MZB1 Fold-Change (48wkBTKi. vs. antiCD20)” value [1, 2] was −1.968, the “NEFL Fold-Change (48wkBTKi. vs. antiCD20)” value [1, 2] was −3.42 and the “NPDC1 Fold-Change (48wkBTKi. vs. antiCD20)” value [1, 2] was −2.471. The “NPTX1 Fold-Change (48wkBTKi. vs. antiCD20)” value [1, 2] was −2.103, the “NPY Fold-Change (48wkBTKi. vs. antiCD20)” value [1, 2] was −1.797 and the “NTproBNP Fold-Change (48wkBTKi. vs. antiCD20)” value [1, 2] was −2.314. For the same molecule, the “NUB1 Fold-Change (48wkBTKi. vs. antiCD20)” value [1, 2] was −1.624, the “NUCB2 Fold-Change (48wkBTKi. vs. antiCD20)” value [1, 2] was −2.551 and the “PDCD5 Fold-Change (48wkBTKi. vs. antiCD20)” value [1, 2] was −2.511. For the same molecule, the “PRL Fold-Change (48wkBTKi. vs. antiCD20)” value [1, 2] was −3.416, the “ROBO1 Fold-Change (48wkBTKi. vs. antiCD20)” value [1, 2] was −1.511 and the “RTBDN Fold-Change (48wkBTKi. vs. antiCD20)” value [1, 2] was −2.625. For the same molecule, the “SCG2 Fold-Change (48wkBTKi. vs. antiCD20)” value [1, 2] was −2.959, the “SCG3 Fold-Change (48wkBTKi. vs. antiCD20)” value [1, 2] was −2.2848 and the “SPRY2 Fold-Change (48wkBTKi. vs. antiCD20)” value [1, 2] was −1.907. For the same molecule, the “STC1 Fold-Change (48wkBTKi. vs. antiCD20)” value [1, 2] was −1.863, the “TDGF1 Fold-Change (48wkBTKi. vs. antiCD20)” value [1, 2] was −4.457 and the “TIMP4 Fold-Change (48wkBTKi. vs. antiCD20)” value [1, 2] was −1.776. For the same molecule, the “TNFRSF6B Fold-Change (48wkBTKi. vs. antiCD20)” value [1, 2] was −2.999, the “TNFRSF13B Fold-Change (48wkBTKi. vs. antiCD20)” value [1, 2] was −2.063 and the “WFIKKN2 Fold-Change (48wkBTKi. vs. antiCD20)” value [1, 2] was −2.432. For the same molecule, the “WIF1 Fold-Change (48wkBTKi. vs. antiCD20)” value [1, 2] was −1.994, the “share of disease-associated proteins reverting towards levels observed in healthy volunteers” value ([1]; CSF, 48 weeks after transitioning to tolebrutinib from a B-cell depleting therapy) was 47% and the “number of proteins with decreased abundance” value [1, 3] was 60 proteins. For the same molecule, the “number of proteins with increased abundance” value [1, 3] was 0 proteins, the “proteins with increased abundance in subjects with MS (relative to HV) that were reversed” value ([1]; CSF, 48 weeks post-transitioning to tolebrutinib relative to anti-CD20 baseline levels) was 30 proteins and the “CXCL10 in CSF” value ([1]; Olink, subjects who switched from ocrelizumab to tolebrutinib (12 and 48 weeks)) was “downregulated”. The “CXCL13 in CSF” value ([1]; Olink, subjects who switched from ocrelizumab to tolebrutinib, twelve week and forty-eight week course) was “downregulated” and the “CXCL13 in CSF” value (CXCL13) was “decrease”.
With “anti-CD20 antibody: B cell depleting agent; participants had been treated with ocrelizumab, humanized monoclonal antibody directed against the CD20 antigen” the “CD6 Fold-change (antiCD20. vs. Untreated)” value [1, 4] was −1.8, the “CD22 Fold-change (antiCD20. vs. Untreated)” value [1, 4] was −2.442 and the “FCRL1 Fold-change (antiCD20. vs. Untreated)” value [1, 4] was −2.744. For the same molecule, the “SORD Fold-change (antiCD20. vs. Untreated)” value [1, 4] was 2.045.
